Laboratory results reported in patent US7172867B2, “Methods of testing for allergic diseases, and therapeutic agents for treating same” (priority 2002, dated 2007).
“Also recorded” adds a separate entry of the source. Read-outs that look alike come from different tables or passages of the source. One block for each molecule: values may come before it.

Legend:
TR3 (Nur77) [1] = biological target: T1, TR3 (Nur77) (Homo sapiens, UniProt P22736); assay: Mammalian two hybrid luciferase reporter system for TR3 ligand search (GAL4-TR3 LBD or full length, NIH3T3 cells, with or without RXRα); type: cell-based; conditions: for Nur77 LBD-ligand activity RXR(+): TR3 LBD fused to GAL4, RXRα added, NIH3T3 luciferase, ◯ with concentration, X
T1 construct: expressed in transfected cells; host or cells: NIH3T3
Method: (§1) A TR3 or TINUR ligand-binding site is inserted into X, and the full-length retinoic acid X receptor (RXR) α gene is inserted into Y. These constructs are transfected into NIH3T3 cells, and the activity of induced luciferase is measured.
This was done to facilitate expression of a protein in which the DNA binding domains of TR3 and GAL4 were fused in frame. A plasmid comprising the TR3 ligand binding domain sequence inserted into pBIND, and a luciferase reporter plasmid comprising a GAL4 binding site, were co-transfected into NIH3T3 cells. Luciferase activity was measured automatically. At this time, activity was also measured by adding a retinoic acid X receptor (RXR) α-gene, which is a transcription factor that forms a heterodimer with TR3. By further adding low molecular weight substances to this system, transcriptional enhancement activity can also be used for screening.
TR3 expression is enhanced in activated eosinophils, such as in the peripheral blood of atopic dermatitis patients. Ligands existing in vivo may exist in sites where nuclear receptors are highly expressed. Therefore, small molecule lipid-soluble mediators considered to be produced under such conditions were added to the assay system, and evaluated based on their ability to enhance luciferase activity. […] In this manner, the method established by the present inventors paved the way for the high throughput discovery of native and synthetic TR3 ligands.
(§2) Thus, it was implied that prostaglandin A2 functions by acting on the LBD region of the nuclear receptor.

TINUR (Nurr1) [2] = biological target: T2, TINUR (Nurr1) (Homo sapiens, UniProt P43354); assay: Mammalian two hybrid luciferase reporter system for TINUR ligand search (GAL4-TINUR LBD or full length, NIH3T3 cells, with or without RXRα); type: cell-based; conditions: for Nurr1 LBD-ligand activity RXR(+): TINUR LBD fused to GAL4, RXRα added, NIH3T3 luciferase, ◯ with concentration, X
T2 construct: expressed in transfected cells; host or cells: NIH3T3
Method: as §1
Target sequence in this assay (P43354 360-598): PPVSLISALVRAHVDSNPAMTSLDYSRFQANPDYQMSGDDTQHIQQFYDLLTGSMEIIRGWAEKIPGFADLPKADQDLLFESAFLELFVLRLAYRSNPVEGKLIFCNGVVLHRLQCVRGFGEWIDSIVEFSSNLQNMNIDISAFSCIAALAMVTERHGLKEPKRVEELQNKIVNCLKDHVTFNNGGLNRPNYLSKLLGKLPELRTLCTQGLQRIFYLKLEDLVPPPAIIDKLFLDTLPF
A plasmid comprising the TINUR ligand binding domain sequence inserted into pBIND, and a luciferase reporter plasmid comprising a GAL4 binding site, were co-transfected into NIH3T3 cells. Luciferase activity was measured automatically. At the same time, activity measurement was also carried out by adding retinoic acid X receptor (RXR) α-gene, a transcription factor that forms a heterodimer with TINUR. Low molecular weight substances can also be added to this system to screen using transcriptional enhancement activity.
Like TR3 expression, TINUR expression is enhanced in activated eosinophils. Ligands existing in vivo may exist in sites where nuclear receptors are highly expressed. […] Ligands of the nuclear receptor subfamily are assumed to have structural redundancy. Therefore, derivatives similar to TR3 activator compounds were added, and enhancement of transcriptional activity was investigated.
as §2

TR3 (Nur77) [3] = biological target: T1, TR3 (Nur77); assay: Mammalian two hybrid luciferase reporter system for TR3 ligand search (GAL4-TR3 LBD or full length, NIH3T3 cells, with or without RXRα); type: cell-based; conditions: for Full length Nur77-ligand activity RXR(+): full length TR3 fused to GAL4, RXRα added; for Full length Nur77-ligand activity RXR(+) / Full length Nur77-ligand activity RXR(−): NIH3T3 luciferase, ◯ with concentration, X; for Full length Nur77-ligand activity RXR(−): full length TR3 fused to GAL4, without RXRα
TINUR (Nurr1) [4] = biological target: T2, TINUR (Nurr1); assay: Mammalian two hybrid luciferase reporter system for TINUR ligand search (GAL4-TINUR LBD or full length, NIH3T3 cells, with or without RXRα); type: cell-based; conditions: NIH3T3 luciferase, ◯ with concentration, X; for Full length Nurr1-ligand activity RXR(+): full length TINUR fused to GAL4, RXRα added; for Full length Nurr1-ligand activity RXR(−): full length TINUR fused to GAL4, without RXRα
Target sequence in this assay (P43354 whole entry, the tested form may be a part): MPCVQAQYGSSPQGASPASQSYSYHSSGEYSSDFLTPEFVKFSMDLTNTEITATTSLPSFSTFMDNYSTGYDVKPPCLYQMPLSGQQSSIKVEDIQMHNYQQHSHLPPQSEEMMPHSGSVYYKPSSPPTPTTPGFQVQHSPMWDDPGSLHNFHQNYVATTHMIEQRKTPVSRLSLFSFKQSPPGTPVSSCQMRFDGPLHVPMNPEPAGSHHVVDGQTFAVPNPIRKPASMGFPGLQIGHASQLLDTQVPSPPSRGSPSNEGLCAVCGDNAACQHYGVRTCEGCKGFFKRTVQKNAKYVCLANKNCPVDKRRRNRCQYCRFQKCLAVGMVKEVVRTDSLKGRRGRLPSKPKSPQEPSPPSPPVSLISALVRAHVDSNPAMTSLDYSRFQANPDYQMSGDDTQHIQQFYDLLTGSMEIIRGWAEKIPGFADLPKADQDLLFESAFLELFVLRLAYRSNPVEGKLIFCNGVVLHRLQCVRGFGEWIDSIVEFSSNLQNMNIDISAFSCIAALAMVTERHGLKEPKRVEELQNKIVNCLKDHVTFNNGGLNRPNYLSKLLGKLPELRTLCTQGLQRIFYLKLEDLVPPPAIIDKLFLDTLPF

TR3 LBD = biological target: T3, TR3 LBD (Homo sapiens, UniProt P22736); assay: Binding to TR3 GST-LBD by BIAcor S51; conditions: BIAcor S51, comparison with GST as a base
T3 construct: TR3 GST-LBD and TINUR GST-LBD were respectively expressed in E. coli, and then purified; made in house; host or cells: E. coli
Excerpt: In the present invention, a biosensor utilizing the phenomenon of surface plasmon resonance may also be used to detect or measure the bound compound. […] Therefore, biosensors such as BIACORE can be used to evaluate binding between the TR3 or TINUR protein and a test compound.

TINUR LBD = biological target: T4, TINUR LBD (Homo sapiens, UniProt P43354); assay: Binding to TINUR GST-LBD by BIAcor S51; conditions: BIAcor S51, comparison with GST as a base
T4 construct: TR3 GST-LBD and TINUR GST-LBD were respectively expressed in E. coli, and then purified; made in house; host or cells: E. coli

[5] = test system: TR3 expression in peripheral blood eosinophils; assay: TR3 expression induction in cultured peripheral blood eosinophils; type: cell-based, human; conditions: cultured peripheral blood eosinophils from healthy subjects, one to three-hour treatment
TINUR (Nurr1) [6] = assay: Mammalian two hybrid luciferase reporter system for TINUR ligand search (GAL4-TINUR LBD or full length, NIH3T3 cells, with or without RXRα); type: cell-based, human; conditions: LBD deletion mutant (ΔLBD)

T4 sequence (P43354 360-595 limits assumed): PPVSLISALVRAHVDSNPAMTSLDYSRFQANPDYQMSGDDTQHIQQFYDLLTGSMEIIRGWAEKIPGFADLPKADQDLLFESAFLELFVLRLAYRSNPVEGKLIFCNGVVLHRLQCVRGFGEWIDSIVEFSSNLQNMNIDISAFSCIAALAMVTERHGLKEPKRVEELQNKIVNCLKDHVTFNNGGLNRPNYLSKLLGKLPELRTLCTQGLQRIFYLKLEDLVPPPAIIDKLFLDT
T3 sequence (P22736 360-595 limits assumed): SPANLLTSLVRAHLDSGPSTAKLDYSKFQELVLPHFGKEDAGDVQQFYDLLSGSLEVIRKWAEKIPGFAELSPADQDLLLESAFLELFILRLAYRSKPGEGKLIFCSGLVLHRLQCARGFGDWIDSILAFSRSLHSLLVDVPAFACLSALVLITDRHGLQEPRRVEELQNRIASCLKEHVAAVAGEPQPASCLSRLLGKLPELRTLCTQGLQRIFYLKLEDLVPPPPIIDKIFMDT

Molecule: O=C(O)CCC/C=C\C[C@H]1C(=O)C=C[C@@H]1/C=C/[C@@H](O)CCc1ccccc1 [17-phenyl trinorProstaglandin A2]
activity of enhancing the transcription-activating ability of TR3 (luciferase reporter), in words (TR3 (Nur77) [1]): ligand activators for TR3
Nur77 LBD-ligand activity RXR(+) (TR3 (Nur77) [1]): ◯10 μM
activity of activating TINUR transcription (luciferase reporter), in words (TINUR (Nurr1) [2]): ligand activators; also recorded: found to comprise the activity of activating TINUR transcription
Nurr1 LBD-ligand activity RXR(+) (TINUR (Nurr1) [2]): ◯10 μM
Full length Nur77-ligand activity RXR(+) (TR3 (Nur77) [3]): ◯10 μM
Full length Nurr1-ligand activity RXR(+) (TINUR (Nurr1) [4]): ◯10 μM

Molecule: CCCCC[C@@](C)(O)/C=C/[C@H]1C=CC(=O)[C@@H]1C/C=C\CCCC(=O)O [15(R)-15-methylProstaglandin A2]
activity of enhancing the transcription-activating ability of TR3 (luciferase reporter), in words (TR3 (Nur77) [1]): ligand activators for TR3; also recorded: the activity of enhancing the transcription-activating ability of TR3 was found
Nur77 LBD-ligand activity RXR(+) (TR3 (Nur77) [1]): ◯10 μM
activity of activating TINUR transcription (luciferase reporter), in words (TINUR (Nurr1) [2]): ligand activators; also recorded: found to comprise the activity of activating TINUR transcription
Nurr1 LBD-ligand activity RXR(+) (TINUR (Nurr1) [2]): ◯10 μM
Full length Nur77-ligand activity RXR(+) (TR3 (Nur77) [3]): ◯10 μM
Full length Nur77-ligand activity RXR(−) (TR3 (Nur77) [3]): ◯10 μM
Full length Nurr1-ligand activity RXR(+) (TINUR (Nurr1) [4]): ◯10 μM

Molecule: O=C(O)CCC/C=C\C[C@H]1C(=O)C=C[C@@H]1/C=C/[C@@H](O)COc1ccccc1 [16-phenoxytetranorProstaglandin A2]
activity of enhancing the transcription-activating ability of TR3 (luciferase reporter), in words (TR3 (Nur77) [1]): ligand activators for TR3
activity of activating TINUR transcription (luciferase reporter), in words (TINUR (Nurr1) [2]): ligand activators; also recorded: found to comprise the activity of activating TINUR transcription
Nurr1 LBD-ligand activity RXR(+) (TINUR (Nurr1) [2]): ◯10 μM
Full length Nur77-ligand activity RXR(−) (TR3 (Nur77) [3]): ◯30 μM
Full length Nurr1-ligand activity RXR(+) (TINUR (Nurr1) [4]): ◯30 μM
Full length Nurr1-ligand activity RXR(−) (TINUR (Nurr1) [4]): ◯30 μM

Molecule: CCCCC[C@H](O)C/C=C1/C(=O)C=C[C@@H]1C/C=C\CCCC(=O)O [Δ12-Prostaglandin J2]
activity of enhancing the transcription-activating ability of TR3 (luciferase reporter), in words (TR3 (Nur77) [1]): the activity of enhancing the transcription-activating ability of TR3 was found

Molecule: IL-5: cytokine used for eosinophil activation
TR3 induction [5]: did not lead to TR3 induction

Molecule: CCCCC[C@H](O)/C=C/[C@H]1C=CC(=O)[C@@H]1C/C=C\CCCC(=O)O [Prostaglandin A2]
activity of enhancing the transcription-activating ability of TR3 (luciferase reporter), in words (TR3 (Nur77) [1]): ligand activators for TR3; also recorded: the activity of enhancing the transcription-activating ability of TR3 was found
Nur77 LBD-ligand activity RXR(+) (TR3 (Nur77) [1]): ◯10 μM
activity of activating TINUR transcription (luciferase reporter), in words (TINUR (Nurr1) [2]): ligand activators; also recorded: found to comprise the activity of activating TINUR transcription
Nurr1 LBD-ligand activity RXR(+) (TINUR (Nurr1) [2]): ◯10 μM
binding to the LBD of TR3 (TR3 LBD): detected
binding to the LBD of TINUR (TINUR LBD): detected
transcriptional activity with TR3 gene completely lacking an LBD region (TR3 (Nur77) [3]; LBD deletion mutant (ΔLBD)): suppressed
Full length Nur77-ligand activity RXR(+) (TR3 (Nur77) [3]): ◯10 μM
Full length Nur77-ligand activity RXR(−) (TR3 (Nur77) [3]): ◯10 μM
Full length Nurr1-ligand activity RXR(+) (TINUR (Nurr1) [4]): ◯10 μM
Full length Nurr1-ligand activity RXR(−) (TINUR (Nurr1) [4]): ◯10 μM
transcriptional activity with TINUR gene completely lacking an LBD region (TINUR (Nurr1) [6]): suppressed

B1: IL-4: cytokine used for eosinophil activation (protein, UniProt P05112 25-153, looked up)
Interleukin-4: HKCDITLQEIIKTLNSLTEQKTLCTELTVTDIFAASKNTTEKETFCRAATVLRQFYSHHEKDTRCLGATAQQFHRHKQLIRFLKRLDRNLWGLAGLNSCPVKEANQSTLENFLERLKTIMREKYSKCSS
TR3 induction [5]: did not lead to TR3 induction

Continued, in another order:

Nur77 LBD-ligand activity RXR(+) (TR3 (Nur77) [1]): ◯10 μM
Nurr1 LBD-ligand activity RXR(+) (TINUR (Nurr1) [2]): ◯10 μM
binding to the LBD of TR3 (TR3 LBD): detected
binding to the LBD of TINUR (TINUR LBD): detected
Full length Nur77-ligand activity RXR(+) (TR3 (Nur77) [3]): ◯10 μM
Full length Nur77-ligand activity RXR(−) (TR3 (Nur77) [3]): ◯10 μM
Full length Nurr1-ligand activity RXR(+) (TINUR (Nurr1) [4]): ◯10 μM
Full length Nurr1-ligand activity RXR(−) (TINUR (Nurr1) [4]): ◯10 μM
Molecule: CCCCC[C@H](O)/C=C/[C@H]1C=CC(=O)[C@@H]1CCCCCCC(=O)O [Prostaglandin A1]
activity of enhancing the transcription-activating ability of TR3 (luciferase reporter), in words (TR3 (Nur77) [1]): ligand activators for TR3; also recorded: the activity of enhancing the transcription-activating ability of TR3 was found
activity of activating TINUR transcription (luciferase reporter), in words (TINUR (Nurr1) [2]): ligand activators; also recorded: found to comprise the activity of activating TINUR transcription

activity of enhancing the transcription-activating ability of TR3 (luciferase reporter), in words (TR3 (Nur77) [1]): ligand activators for TR3
Nurr1 LBD-ligand activity RXR(+) (TINUR (Nurr1) [2]): ◯10 μM
Full length Nur77-ligand activity RXR(+) (TR3 (Nur77) [3]): ◯10 μM
Full length Nur77-ligand activity RXR(−) (TR3 (Nur77) [3]): ◯10 μM
Molecule: CCCCC/C=C/C=C1/C(=O)C=C[C@@H]1C/C=C\CCCC(=O)O [15-deoxy-Δ^12.14_Prostaglandin J2]
activity of activating TINUR transcription (luciferase reporter), in words (TINUR (Nurr1) [2]; listed as 15-deoxy-delta 12,14-prostaglandin J2): ligand activators; also recorded: found to comprise the activity of activating TINUR transcription

activity of enhancing the transcription-activating ability of TR3 (luciferase reporter), in words (TR3 (Nur77) [1]): ligand activators for TR3
Nur77 LBD-ligand activity RXR(+) (TR3 (Nur77) [1]): ◯30 μM
Full length Nur77-ligand activity RXR(+) (TR3 (Nur77) [3]): ◯30 μM
Molecule: CCCCC/C=C/C=C1/C=CC(=O)[C@@H]1CCCCCCC(=O)O [15-deoxy-Δ^12.14_Prostaglandin A1]

activity of enhancing the transcription-activating ability of TR3 (luciferase reporter), in words (TR3 (Nur77) [1]): ligand activators for TR3
Nur77 LBD-ligand activity RXR(+) (TR3 (Nur77) [1]): ◯10 μM
Nurr1 LBD-ligand activity RXR(+) (TINUR (Nurr1) [2]): ◯10 μM
Full length Nur77-ligand activity RXR(+) (TR3 (Nur77) [3]): ◯ 3 μM
Full length Nurr1-ligand activity RXR(+) (TINUR (Nurr1) [4]): ◯10 μM
Molecule: CCCCC[C@H](O)/C=C/[C@H]1C=CC(=O)[C@H]1CCCCCCC(=O)O [8-isoProstaglandin A1]
activity of activating TINUR transcription (luciferase reporter), in words (TINUR (Nurr1) [2]): ligand activators; also recorded: found to comprise the activity of activating TINUR transcription

Nur77 LBD-ligand activity RXR(+) (TR3 (Nur77) [1]): ◯10 μM
Nurr1 LBD-ligand activity RXR(+) (TINUR (Nurr1) [2]): ◯10 μM
Full length Nur77-ligand activity RXR(+) (TR3 (Nur77) [3]): ◯10 μM
Full length Nur77-ligand activity RXR(−) (TR3 (Nur77) [3]): ◯10 μM
Molecule: CCCCC[C@@H](O)/C=C/[C@H]1C=CC(=O)[C@@H]1CCCCCCC(=O)O [15-epiProstaglandin A1]
activity of enhancing the transcription-activating ability of TR3 (luciferase reporter), in words (TR3 (Nur77) [1]): ligand activators for TR3; also recorded: the activity of enhancing the transcription-activating ability of TR3 was found
activity of activating TINUR transcription (luciferase reporter), in words (TINUR (Nurr1) [2]): ligand activators; also recorded: found to comprise the activity of activating TINUR transcription
